# Ends that are not written are not given here.
# System: carbohydrate overload model of acute laminitis in horses
# Assay: Oligofructose (carbohydrate) overload model of acute laminitis, LTNF peptide study KLM-15-02
# Format: in vivo
# Conditions: all horses that received the intravenous peptide, 2 to 8 grams
# Method: This communication is a brief report on the results obtained from the recent clinical study to evaluate the potential prophylactic and/or therapeutic properties of KLM's proprietary application of a 15 amino acid sequence termed LTRF in saline when employed in a carbohydrate overload model of acute laminitis in horses.
# In compliance with the methods outlined in protocol KLM-15-02, nine healthy, mature horses between 4 and 9 years of age were evaluated for enrollment in the clinical study. […] Preliminary examinations were deemed normal for all candidates. Eligible candidates underwent a formal acclimation period of 10 days, during which feed, water, housing and management were identical to conditions of the actual study. On Days −3, −2, and −1, oligofructose was added to the a.m. grain ration of each candidate at a dosage of 1 gram per kg body weight.
# Prior to induction on Day 0, a baseline lameness exam was repeated and captured on video. […]
# At regular, 6-hr intervals after induction, the general health of each horse was assessed, a lameness exam was repeated, and rectal temperature was monitored. Once diarrhea had begun, each horse's hydration status was monitored at 2- to 4-hr intervals by assessing its packed cell volume (PCV; hematocrit) and plasma total protein concentration. […]
sequence,measurement,value
"LKAMDPTPPLWIKTE [LTNF peptide, Leu-Lys-Ala-Met-Asp-Pro-Thr-Pro-Pro-Leu-Trp-Ile-Lys-Thr-Glu]",signs of immune reaction or toxicity,no signs of immune reaction or toxicity
